Results on 22 compounds are retold here after US9440913B2, “Dihydroxybenzene derivatives and antiprotozoal agent comprising same as active ingredient” (NAI INC., priority 2010, dated 2016).

A word on the IC50: it is the point on the concentration scale where inhibition reaches its midpoint. A word on the melting point: it is the temperature, or range, at which the solid turns liquid. As usually defined, the MIC is the smallest concentration in the dilution series that meets the test's criterion for growth inhibition.

Where two headings read alike, the source gives them in different places.

The target in data set [1] is T1, recombinant Trypanosome AOX (TAO) enzyme (Trypanosoma brucei brucei, UniProt Q26710).
T1 construct: made in house; host or cells: Escherichia coli (membrane fraction)
The data set is described as follows: TAO enzyme inhibition (quinol oxidase activity, ubiquinol-1 substrate). The class given is biochemical, T. brucei brucei. The following applies: TAO-expressing E. coli membrane fraction, 25° C., ubiquinol-1, absorbance at 278 nm. On the procedure:
Escherichia coli membrane fractions that express TAO by a plasmid harboring TAO cDNA cloned from T. brucei brucei (Fukai, Comparative Biochemistry & Physiology, 124, 141-148, 1999) were used as a recombinant Trypanosome AOX (TAO) enzyme. 50 mM Tris-HCl (pH 7.5), TAO-expressing membrane fraction (0.35 ng), and […] of an inhibitor were mixed in a 1 mL cuvette, and the mixture was incubated at 25° C. for 4 minutes. Ubiquinol-1 as a substrate was then added to the mixture to initiated the reaction, and change in absorbance at 278 nm was monitored (Shimadzu UV-3000, molar absorption coefficient ε=15 cm^−1 mM^−1).

In data set [2] the target is Cryptosporidium cyanide insensitive oxidase (AOX), recombinant protein (cCpAOX) (Cryptosporidium parvum, UniProt Q761U6). The data set is described as follows: CpAOX enzyme inhibition. The class given is biochemical. From the text: Cryptosporidium has found to have cyanide insensitive oxidase (AOX), and its inhibitory activity was observed using its recombinant protein (cCpAOX) produced in E. coli.

A further data set concerns T. b. rhodesiense IL1501. Briefly: Antiprotozoal effect, MIC measurement in HMI-9 culture. The class given is cell-based. The following applies: Trypanosoma brucei, RHODESIENSE, 24 h, bloodstream forms, 18 + 6 hours culture. On the procedure:
T. b. rhodesiense IL1501, the human infectious protozoan that causes acute symptoms, was used as a Trypanosomatid protozoan. The bloodstream forms of protozoan can be cultured in a HMI-9 culture medium (Hirumi, 1989). The protozoan was always cultured at a temperature of 37° C. in the presence of 5% CO2.
In a microtiter plate (96-well, FALCON 3072), HMI-9 culture medium and HMI-9 culture medium plus glycerol added to make a final concentration of 8.33 mM are separately prepared. 89 μL of the preparation are put into only the first well, and a 60 μL aliquot of each the other wells. 1 μL of a solution of AF or a AF derivative dissolved in DMSO was added to the first well, and was then suspended. A 30 μL aliquot of the suspension was then collected, was transferred to the second well, and was suspended. These operations were repeated in this order to prepare a three-fold dilution series of drug. A 40 μL aliquot of a protozoan culture was added to each well to make a final concentration of 5×10^4 cells/well (a final concentration of glycerol of 5 mM) followed by 18-hours culturing under conditions of 37° C. and 5% CO2. (For EC50 measurement, a 10 μL aliquot of Alamar Blue was added to each well), culturing was carried out under the same conditions for 6 more hours, surviving protozoans were visually observed with a microscope. The concentration at which no motile surviving protozoan was observed was defined as MIC.

The mark [3] stands for this setting: Glycerol (+), final concentration of glycerol of 5 mM.

Sequence of Cryptosporidium cyanide insensitive oxidase (AOX), recombinant protein (cCpAOX) (Q761U6 entry or part of it): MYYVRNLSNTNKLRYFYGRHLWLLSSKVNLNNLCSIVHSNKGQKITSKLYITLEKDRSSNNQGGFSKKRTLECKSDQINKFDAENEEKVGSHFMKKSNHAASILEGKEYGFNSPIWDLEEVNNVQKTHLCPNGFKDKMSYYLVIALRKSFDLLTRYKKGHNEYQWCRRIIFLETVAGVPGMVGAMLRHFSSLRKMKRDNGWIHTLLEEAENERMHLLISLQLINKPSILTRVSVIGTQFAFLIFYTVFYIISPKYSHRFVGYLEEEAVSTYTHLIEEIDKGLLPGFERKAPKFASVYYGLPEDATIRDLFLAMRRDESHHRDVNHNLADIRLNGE
T1 sequence (Q26710 whole entry): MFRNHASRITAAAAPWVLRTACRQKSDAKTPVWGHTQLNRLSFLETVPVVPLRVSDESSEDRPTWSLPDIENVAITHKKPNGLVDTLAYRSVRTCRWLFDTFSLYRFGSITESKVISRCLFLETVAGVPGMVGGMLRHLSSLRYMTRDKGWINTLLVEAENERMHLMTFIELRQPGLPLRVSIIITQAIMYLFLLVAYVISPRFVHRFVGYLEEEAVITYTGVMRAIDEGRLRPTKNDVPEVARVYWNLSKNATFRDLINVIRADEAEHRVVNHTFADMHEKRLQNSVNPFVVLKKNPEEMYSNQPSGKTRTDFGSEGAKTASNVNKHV

For the compound `Cc1c(Cl)c(O)c(/C=C/CCCCCCCOC(=O)C(C)(C)C)c(O)c1C=O` [Compound 200-13-OPiv, (E)-9-(3-Chloro-5-formyl-2,6-dihydroxy-4-methylphenyl)-8-nonenyl pivalate], the melting point lay in the range of 69 to 70 °C. Moreover, the IC50 in data set [1] was found to be 0.32 nM. Further, in data set [2], the IC50 stood at 2.2 nM.

Regarding `Cc1c(Cl)c(O)c(C/C=C/CCCCCOC(=O)C(C)(C)C)c(O)c1C=O` [Compound 206-12-OPiv, (E)-8-(3-Chloro-5-formyl-2,6-dihydroxy-4-methylphenyl)-6-octenyl pivalate], the values for the IC50 in data set [1] and in data set [2] were 0.27 nM and 2.1 nM, respectively. For the same compound, the results for the MIC in the data set with T. b. rhodesiense IL1501 (setting [3]) and in the data set on T. b. rhodesiense IL1501 (Glycerol (−)) were 0.006 nM and 0.024 nM, respectively.

`Cc1c(Cl)c(O)c(CCCCCCCCCC(=O)O)c(O)c1C=O` [Compound 215-11-COOH, 10-(3-Chloro-5-formyl-2,6-dihydroxy-4-methylphenyl)decanoic acid]: the melting point lay in the range of 154 to 156 °C. Further, in data set [1], the half-maximal inhibitory concentration (IC50) turned out to be 1.5 nM. Also, the MIC in the data set with T. b. rhodesiense IL1501 (setting [3]) amounted to 1500 nM. In addition, in the data set on T. b. rhodesiense IL1501 (Glycerol (−)), the minimum inhibitory concentration (MIC) turned out to be 4000 nM. Moreover, the IC50 in data set [2] came out at 2.1 nM.

Take `CC(=O)OCCCCCCCCc1c(O)c(Cl)c(C)c(C=O)c1O` [Compound 215-11-OAc, 8-(3-Chloro-5-formyl-2,6-dihydroxy-4-methylphenyl)octyl acetate]: the melting point stood at 68 °C. Besides, in data set [1], the half-maximal inhibitory concentration (IC50) came out at 0.6 nM. Also, the minimum inhibitory concentration (MIC) with T. b. rhodesiense IL1501 (setting [3]) came to 7.7 nM. Besides, the MIC in the data set with T. b. rhodesiense IL1501 (Glycerol (−)) is 68 nM. The IC50 in data set [2] was determined as 2.7 nM.

Regarding `Cc1c(Cl)c(O)c(CCCCCCCOC(=O)C(C)(C)C)c(O)c1C=O` [Compound 215-11-OPiv, 7-(3-Chloro-5-formyl-2,6-dihydroxy-4-methylphenyl)heptyl pivalate], the melting point was 63 to 64 °C. In addition, the IC50 in data set [1] came out at 0.25 nM. For the same compound, the MIC in the data set with T. b. rhodesiense IL1501 (setting [3]) is 0.094 nM. For the same compound, in the data set with T. b. rhodesiense IL1501 (Glycerol (−)), the MIC came out at 0.88 nM. The IC50 in data set [2] was found to be 1.4 nM.

Consider `COC(=O)CCCCCCCCCc1c(O)c(Cl)c(C)c(C=O)c1O` [Compound 215-12-COOMe, Methyl 10-(3-chloro-5-formyl-2,6-dihydroxy-4-methylphenyl)decanoate], for which the melting point lay within 87 to 88 °C. Further, in data set [1], the IC50 stood at 0.25 nM. In addition, the minimal inhibitory concentration (MIC) with T. b. rhodesiense IL1501 (setting [3]) is 5.7 nM. Further, the minimum inhibitory concentration (MIC) with T. b. rhodesiense IL1501 (Glycerol (−)) amounted to 38 nM. Also, in data set [2], the 50% inhibitory concentration (IC50) is 1.5 nM.

Compound `CCC(=O)OCCCCCCCCc1c(O)c(Cl)c(C)c(C=O)c1O` [Compound 215-12-OCOEt, 8-(3-Chloro-5-formyl-2,6-dihydroxy-4-methylphenyl)octyl propionate] registered a melting point of 63 to 64 °C. For the same compound, the IC50 in data set [1] worked out at 0.29 nM. The IC50 in data set [2] was determined as 2.2 nM.

Consider `Cc1c(Cl)c(O)c(CCCCCCCCOC(=O)C(C)C)c(O)c1C=O` [Compound 215-12-OCOiPr, 8-(3-Chloro-5-formyl-2,6-dihydroxy-4-methylphenyl)octyl isobutylate], for which the IC50 in data set [1] amounted to 0.29 nM; in data set [2] (recombinant protein produced in E. coli, read-out: CpAOX enzyme inhibition (IC50:nM)), 3.7 nM.

`Cc1c(Cl)c(O)c(CCCCCCCCOC(=O)C(C)(C)C)c(O)c1C=O` [Compound 215-12-OPiv, 8-(3-Chloro-5-formyl-2,6-dihydroxy-4-methylphenyl)octyl pivalate] displayed a melting point of 70 to 71 °C. For the same compound, the IC50 in data set [1] turned out to be 0.32 nM. Besides, the minimum inhibitory concentration (MIC) in the data set with T. b. rhodesiense IL1501 (setting [3]) turned out to be 0.49 nM. The MIC in the data set on T. b. rhodesiense IL1501 (Glycerol (−)) was 1.9 nM. Moreover, the IC50 in data set [2] amounted to 2.7 nM.

For the compound `Cc1c(Cl)c(O)c(CCCCCCCCCC(=O)OC(C)(C)C)c(O)c1C=O` [Compound 215-13-COOBu, tert-Butyl 10-(3-chloro-2,6-dihydroxy-5-formyl-4-methylphenyl)decanoate], the IC50 in data set [1] is 0.25 nM; in data set [2], 0.92 nM. For the same compound, the values for the minimum inhibitory concentration (MIC) in the data set on T. b. rhodesiense IL1501 (setting [3]) and in the data set on T. b. rhodesiense IL1501 (Glycerol (−)) were 1.2 nM and 16 nM, respectively.

Take `Cc1c(Cl)c(O)c(CCCCCCCCCC(=O)OC(C)C)c(O)c1C=O` [Compound 215-13-COOiPr, Isopropyl 10-(3-chloro-2,6-dihydroxy-5-formyl-4-methylphenyl)decanoate]: the melting point is 49 °C. Further, the IC50 in data set [1] was found to be 0.43 nM. The minimal inhibitory concentration (MIC) with T. b. rhodesiense IL1501 (setting [3]) came to 0.061 nM. Also, the MIC in the data set with T. b. rhodesiense IL1501 (Glycerol (−)) stood at 1.7 nM. In data set [2], the IC50 worked out at 2.2 nM.

`CCC(=O)OCCCCCCCCCc1c(O)c(Cl)c(C)c(C=O)c1O` [Compound 215-13-OCOEt, 9-(3-Chloro-5-formyl-2,6-dihydroxy-4-methylphenyl)nonyl propionate] gave a melting point of 69 to 70 °C. In data set [1], the IC50 worked out at 0.2 nM. For the same compound, in the data set with T. b. rhodesiense IL1501 (setting [3]), the MIC stood at 7.1 nM. Further, the MIC with T. b. rhodesiense IL1501 (Glycerol (−)) came out at 125 nM. The IC50 in data set [2] stood at 2.1 nM.

For `CCOC(=O)CCCCCCCCCCCc1c(O)c(Cl)c(C)c(C=O)c1O` [Compound 215-15-COOEt, Ethyl 12-(3-chloro-5-formyl-2,6-dihydroxy-4-methylphenyl)dodecanoate], the IC50 in data set [1] stood at 0.3 nM; in data set [2], 1.8 nM.

For the compound `Cc1c(Cl)c(O)c(CCCCCCCCCCCC(=O)OC(C)C)c(O)c1C=O` [Compound 215-15-COOiPr, Isopropyl 12-(3-chloro-5-formyl-2,6-dihydroxy-4-methylphenyl)dodecanoate], the melting point lay in the range of 82 to 83 °C. Besides, the IC50 in data set [1] is 0.32 nM. Also, the IC50 in data set [2] stood at 2.5 nM.

`Cc1c(Cl)c(O)c(CCCCCCCC(=O)Oc2c3ccccc3cc3ccccc23)c(O)c1C=O` [Compound 215-18-Anthra, 9-Anthryl 8-(3-chloro-5-formyl-2,6-dihydroxy-4-methylphenyl)octanate]: the values for the IC50 in data set [1] and in data set [2] were 0.5 nM and 2.6 nM, respectively. The MIC in the data set with T. b. rhodesiense IL1501 (setting [3]) was 3.8 nM; in the data set with T. b. rhodesiense IL1501 (Glycerol (−)) it was 6.6 nM.

With `Cc1c(Cl)c(O)c(CCC(C)CCCC(C)COC(=O)C(C)(C)C)c(O)c1C=O` (stereo not drawn) [Compound 235-12-OPiv, 8-(3-Chloro-5-formyl-2,6-dihydroxy-4-methylphenyl)-2,6-dimethyloctyl pivalate], the IC50 in data set [2] was determined as 2.3 nM.

The compound `CCCCC/C(C)=C\Cc1c(O)c(Cl)c(C)c(C=O)c1O` [Compound 264-8-z, (Z)-3-Chloro-4,6-dihydroxy-2-methyl-5-(3-methyl-2-octenyl)benzaldehyde] yielded a melting point of 157 to 158 °C. Also, in data set [1], the IC50 worked out at 0.18 nM. For the same compound, the MIC with T. b. rhodesiense IL1501 (setting [3]) is 0.17 nM. Moreover, the minimum inhibitory concentration (MIC) with T. b. rhodesiense IL1501 (Glycerol (−)) amounted to 0.25 nM. For the same compound, the IC50 in data set [2] was 1.4 nM.

Regarding `Cc1c(Cl)c(O)c(CCC(C)CCCCOC(=O)C(C)(C)C)c(O)c1C=O` (stereo not drawn) [Compound 265-11-OPiv, 7-(3-Chloro-2,6-dihydroxy-5-formyl-4-methylphenyl)-5-methylheptyl pivalate], the IC50 in data set [1] stood at 0.36 nM; in data set [2] it was 2.3 nM.

Consider `COC(CC(=O)C(C)(C)C)/C(C)=C/CC/C(C)=C/Cc1c(O)c(Cl)c(C)c(C=O)c1O` (stereo not drawn) [Compound 271-12], for which the IC50 in data set [1] came out at 0.22 nM; in data set [2], 1.6 nM. Besides, the MIC came to 0.0023 nM in the data set on T. b. rhodesiense IL1501 (setting [3]) and 0.056 nM with T. b. rhodesiense IL1501 (Glycerol (−)).

For the compound `CC(/C=C/C(=O)C(C)(C)C)=C\CC/C(C)=C/Cc1c(O)c(Cl)c(C)c(C=O)c1O` [Compound 273-12, 3-Chloro-4,6-dihydroxy-2-methyl-5-[(2E,6E,8E)-3,7,11,11-tetramethyl-10-oxo-2,6,8-dodecatrienyl]benzaldehyde], the IC50 in data set [1] turned out to be 0.23 nM; in data set [2], 2.2 nM. Besides, the MIC was 1.9 nM with T. b. rhodesiense IL1501 (setting [3]) and 3.7 nM in the data set on T. b. rhodesiense IL1501 (Glycerol (−)).

With `COC(=O)/C(C)=C/CC/C(C)=C/Cc1c(O)c(Cl)c(C)c(C=O)c1O` [Compound 275-10-COOMe, Methyl (2E,6E)-8-(3-Chloro-5-formyl-2,6-dihydroxy-4-methyl)phenyl-2,6-dimethyl-2,6-octadienate], the 50% inhibitory concentration (IC50) in data set [1] turned out to be 0.38 nM; in data set [2], 1.2 nM. Moreover, the MIC in the data set with T. b. rhodesiense IL1501 (setting [3]) turned out to be 1.1 nM; with T. b. rhodesiense IL1501 (Glycerol (−)), 8.7 nM.

On to `CC(C)=CCC/C=C/Cc1c(O)c(Cl)c(C)c(C=O)c1O` [Compound 278-8, (E)-3-Chloro-4,6-dihydroxy-2-methyl-5-(7-methyl-2,6-octadienyl)benzaldehyde], for which the IC50 worked out at 0.25 nM in data set [1] and 1.2 nM in data set [2]. Besides, the figures for the MIC with T. b. rhodesiense IL1501 (setting [3]) and in the data set with T. b. rhodesiense IL1501 (Glycerol (−)) were 7.4 nM and 14 nM, respectively.
